The text below walks through data of a melting point compilation (Tetko et al.; mined from patent text by program, amines drawn as free bases though some values may be those of a salt).

Take `O=C(O)CCCCCCCSc1nc(-c2ccccc2)c(-c2ccccc2)[nH]1`: the melting point (as a rule, the temperature, or range, at which the solid turns liquid) lay in the range of 160 to 162 °C.
`COc1ccc(-c2cc(=Nc3c(C)cc(C)cc3C)n(C)c(N)n2)cc1OC` displayed a melting point of 192 to 195 °C.
As for `C=C1C(=N)NC(=O)N1Cc1ccccc1`, the melting point was 225 °C.
Turning to `CC(C)c1c(CO)c(-c2ccc(F)cc2)nc2ccccc12`, the melting point lay within 208 to 210 °C.
In the case of `COC(=O)C1=C(C(OC)OC)NC(C)=C(C(=O)OCC(C)C)C1c1ccccc1C#N` (stereo not given) it was 126 to 128 °C; in that of `Cc1ccccc1CCNC(=O)c1ccc(Br)cc1`, 102 to 103 °C.
For `N#Cc1cnc2cc(Br)ccc2c1Nc1ccc(Oc2ccccc2)cc1`, the melting point was in the range of 205 to 207 °C.
For the molecule `CCOC(=O)c1cn(-c2nnnn2C)c2nc(Cl)c(F)cc2c1=O`, the melting point lay within 210 to 215 °C.
`O=S1(=O)N=C2CCCN2c2ccc(Oc3cccc(O)c3)cc21`: the melting point was greater than 300 °C.
In turn, `O=Cc1ccn(-c2cc3[nH]c(=O)c(=O)[nH]c3cc2[N+](=O)[O-])c1` came in with a melting point greater than 250 °C.
In the case of `CCOC(=O)c1cc(N=c2sc(=O)n3n2CCCC3)c(Cl)cc1Cl`, the melting point fell in the range of 81 to 83 °C.
Take `CC1(C)CC(=O)C(C(=O)c2ccc(S(C)(=O)=O)cc2[N+](=O)[O-])C(=O)C1`: the melting point was 156 to 158 °C.
In the case of `O=C(NCCO)c1ccc(CCN2CCN(Cc3ccccc3Cl)CC2)cc1` it was 121 to 122 °C; in that of `O=P(Oc1ccc(-c2ccccc2)cc1)(Oc1ccc(-c2ccccc2)cc1)Oc1ccc(-c2ccccc2)cc1`, 137 °C.
`CN(N)C1=NOCc2ccc(Cl)cc21` showed a melting point of 124 to 125 °C.
As to `COc1cc(C(=O)CSCC2CCCCC2)c(OC)cc1Cl`, the melting point lay in the range of 51 to 53 °C.
Molecule `CC(C)(C)OC(=O)NCc1ccc(N2CC(C(=O)N3CCN(CCC(=O)OCc4ccccc4)CC3)OC2=O)cc1` (stereo not given) came in with a melting point of 128 to 130 °C.
For `C[C@]12CCC(=O)C=C1CC[C@@H]1[C@@H]2CC[C@]2(C(F)F)C(=O)CC[C@@H]12`, the melting point lay within 183 to 184 °C.
With `Nc1ccnc2c(F)cccc12`, the melting point was in the range of 184 to 186 °C.
Molecule `Oc1ccc(-c2nc3ccccc3[nH]2)cc1` gave a melting point of 286 to 288 °C.
Consider `CNC(=O)N1N=C(c2ccc([N+](=O)[O-])c(C)c2)c2cc(Cl)ccc2C=C1C`, for which the melting point lay within 196 to 198 °C.
In turn, `Cc1cc(OCc2ccc(-c3ccccc3-c3nnn(C(c4ccccc4)(c4ccccc4)c4ccccc4)n3)cc2)c(CCl)c(C)n1` returned a melting point of 110 to 112 °C.
In turn, `OC(c1ccc(Cl)cc1)(c1ccc(Cl)cc1)c1nccn1Cc1ccccc1` came in with a melting point of 167 to 168 °C.
In the case of `Cc1cc([N+](=O)[O-])c(NC(C)C(=O)O)c([N+](=O)[O-])c1` (stereo not given) it was 158 to 161 °C.
`CCN(C(=O)Nc1ccccc1)c1cccc(-c2ccc(CC3SC(=O)NC3=O)cc2)c1` (stereo not given) had a melting point of 186 °C.
In the case of `O=C1N(Cc2ccc(Cl)s2)c2cccc(Cl)c2C12COc1cc3c(cc12)OCO3` (stereo not given), the melting point lay within 167 to 168 °C.
Then `O=Cc1nc(-c2ccccc2)c(-c2ccccc2)n1Cc1ccccc1`, with 146 to 147 °C; and `CC(C)(C)OC(=O)N1CCc2cc(N)c(N)cc2CC1`, with 147 to 149 °C; and `Cc1nn(-c2ccc(Cl)c3c2CC(C)O3)c(=O)[nH]1` (stereo not given), with 208 to 209 °C.
Regarding `COc1ccc2c(Cl)cc(-n3cccn3)nc2c1`, the melting point was found to be 80 °C.
`CS(=O)(=O)Nc1ncc(SCc2ccccc2)s1` came in with a melting point of 159 to 162 °C.
Molecule `CC(=O)C(=Cc1cccc([N+](=O)[O-])c1)P(=O)(OCC(C)(C)C)OCC(C)(C)C` gave a melting point of 139 to 140 °C.
Regarding `O=[N+]([O-])c1ccc2c(-n3ccnc3)nnc(NCc3ccc4c(c3)OCO4)c2c1`, the melting point lay in the range of 154 to 156 °C.
Consider `COC(=O)[C@H](Cc1ccc(NC(=S)NCCN2CCOCC2)cc1)NC(=O)[C@@H]1CCCN1S(=O)(=O)c1ccc(C)cc1`, for which the melting point fell in the range of 158 to 168 °C.
For the molecule `COC(=O)c1ccccc1S(=O)(=O)NC(=O)Nc1nc(C)c2ccccc2n1`, the melting point lay in the range of 182 to 183 °C.
Molecule `Cc1cc2c(cc1Br)N1CCc3cccc(c31)C(N1CCN(C)CC1)=N2` returned a melting point of 177 °C.
Regarding `C[C@@H]1c2sccc2CN(C)[C@H]1CCNC(=O)c1ccc(NS(C)(=O)=O)cc1` (relative stereo), the melting point was 67 to 74 °C.
In the case of `CC(=O)Oc1cc(OC(C)=O)c2c(c1)Oc1ccccc1C2C#N` (stereo not given) it was 160 to 161 °C.
In the case of `COC(=O)C1Oc2ccccc2Cc2cccc(Cl)c2O1` (stereo not given) it was 107 to 108 °C.
With `CCOC(=O)c1cnc2c(SC(=O)N3CCN(c4ccccc4OC)CC3)cccn2c1=O`, the melting point lay in the range of 151 to 153 °C.
In the case of `Cc1nc(O)c2[nH]nc(C(C)C)c2n1` it was greater than 250 °C.
In the case of `COC(=O)c1ccc(O)c(C(=O)CC(=O)c2ccccc2OCc2ccccc2)c1`, the melting point lay within 95 to 97 °C.
`O=c1cc(-c2ccncc2)nc2n1Cc1ccccc1N2`: the melting point lay within 315 to 317 °C.
In turn, `CCCN(CCC)C1Cc2cc3c(cc2C1)C(=O)N(Cc1ccc(C#N)cc1)C3` (stereo not given) registered a melting point of 141 to 145 °C.
Turning to `CCCCCCCCCCCCCCCCO[C@@H]1CCCO[C@H]1COP(=O)([O-])OCC[N+](C)(C)C` (relative stereo), the melting point was in the range of 85 to 92 °C.
With `Cc1[nH]c2ccccc2c1C(=O)CCCl`, the melting point was 137 to 140 °C.
Turning to `COc1ccccc1[C@@]1(O)[C@H](O)CC(c2ccccc2)(c2ccccc2)[C@@H]2CN(C(=O)Cc3ccc4ccccc4c3)C[C@@H]21` (racemic), the melting point was 188 to 190 °C.
`Cc1cc(C)c2c(n1)N(CCN(C(C)C)C(C)C)C(=O)N(C)C2`: the melting point lay in the range of 97 to 99 °C.
As to `CCCc1c(OCCCOc2ccc(NC(=O)c3nnn[nH]3)cc2)ccc(C(C)=O)c1O`, the melting point was in the range of 200 to 202 °C.
`COc1cccc(COc2ccc3oc(-c4nc(C(C)(C)C)cs4)cc3c2)c1OC(C)C(N)=O` (stereo not given) returned a melting point of 155 to 156 °C.
`CCCCCC(C)C(C)c1cc(O)c2c(c1)OC(C)(C)C1=C2CN(C(C)C(=O)NC(N)=O)CC1` (stereo not given) returned a melting point of 95 to 100 °C.
`CC(NC(Nc1cc(C(F)(F)F)cc(C(F)(F)F)c1)=C(C#N)S(=O)(=O)c1ccc(Cl)cc1)C(C)(C)C` (stereo not given) showed a melting point of 156 to 158 °C.
As for `COc1ccc(Cl)cc1C1=NC(C)(C)CO1`, the melting point was in the range of 50 to 51 °C.
As for `O=C(O)C1Cc2cc(-c3ccccc3)ccc2O1` (stereo not given), the melting point lay in the range of 186 to 187 °C.
On to `CC(C)c1nc(-c2cccs2)cc(-c2ccc(F)cc2)c1C=C(Br)Br`, for which the melting point lay in the range of 107 to 108 °C.
The molecule `COC(=O)c1cccc2nc(SCCCN3CCN(CC(=O)Nc4c(C(C)C)cccc4C(C)C)CC3)oc12` yielded a melting point of 135 to 136 °C.
In the case of `CN1CCN(c2nc(-c3ccccc3)nc3nc(-c4ccncc4)[nH]c23)CC1` it was 333 to 337 °C; in that of `O=C1CCC(C(=O)OCc2ccccn2)N1` (stereo not given), 130 to 131 °C; in that of `NC(=O)CCNc1ccc([N+](=O)[O-])cc1OCCO`, 184 °C.
`OC1CCCc2ccc(OCc3ccc4ccccc4n3)cc21` (stereo not given) yielded a melting point of 113 to 115 °C.
For `O=[N+]([O-])c1ccc(C2=NNC(=S)Cc3cc4c(cc32)OCO4)cc1`, the melting point lay in the range of 257 to 258 °C.
Then `FC(F)(F)Cn1c(-c2c(Cl)cccc2Cl)nc(-c2ccncc2)c1-c1ccc(Cl)cc1`, with 213 to 214 °C.
In the case of `O=C1CCCC12CNc1ccc(Cl)cc12` (stereo not given) it was 201 to 202 °C; in that of `C#Cc1cnc(C)c(O)c1CO`, 170 to 171 °C.
For the molecule `Fc1ccc2c(c1)Sc1ccc(C(F)(F)F)cc1C2=C1CCNCC1`, the melting point lay in the range of 125 to 130 °C.
On to `C1=C(c2c[nH]c3ccccc23)CCN(CC2COc3ccc4c(c3O2)CCCO4)C1` (stereo not given), for which the melting point fell in the range of 186 to 187 °C.
Then `Cc1cc(C2(C(F)(F)F)CC(c3ccc(F)cc3)=NO2)ccc1NC(=O)OC(C)(C)C` (stereo not given), with 149 to 150 °C; and `Cc1cccc2sc(-n3nc(CCC(=O)N(C)O)cc3-c3ccc(Cl)cc3)nc12`, with 156 to 158 °C; and `COc1ccc2cc(CN(C)C(=O)c3oc4ccccc4c3CCc3ccccc3)ccc2c1Br`, with 54 to 57 °C.
In the case of `CS(=O)(=O)c1cccc(Cn2ccc(OCc3ccc(F)cc3F)c(Cl)c2=O)c1` it was 155 to 157 °C; in that of `O=CN(N=Cc1cccs1)c1ccc(Cl)cc1`, 103 to 105 °C; in that of `CC(=O)OCc1cccc(N)c1I`, 80 to 81 °C.
`O=c1ccn(C2C=CC(CO)O2)c(=O)[nH]1` (stereo not given) yielded a melting point of 150 to 151 °C.
In the case of `COc1ccc(-c2coc3cc(OCC4CO4)ccc3c2=O)cc1OC` (stereo not given) it was 161 to 162 °C.
Take `Cc1c(C)c2c(c(C)c1NCc1ccccc1)C(c1ccc(-c3ccccc3)cc1)CO2` (stereo not given): the melting point was in the range of 77 to 78 °C.
In the case of `O=c1c2c(CBr)c(-c3ccc([N+](=O)[O-])cc3)sc2n(Cc2c(F)cccc2F)c(=O)n1-c1ccccc1` it was 228 to 229 °C; in that of `CC(=O)Oc1c(C2CCN(CCCCNC(=O)c3ccc(NC(=O)c4ccc(Cl)cc4)cc3)CC2)ccc2ccccc12`, 240 °C; in that of `CCOC(=O)[C@H](C)Nc1c(C)cc(C)cc1C`, 81 to 83 °C.
The molecule `CCCNCC(O)COc1ccc2c(=O)cc(-c3ccccc3)oc2c1` (stereo not given) had a melting point of 145 to 147 °C.
Turning to `CCOC(=O)C1=C(N)N=C(N(C)C)C(C(=O)OCC)C1c1cccc([N+](=O)[O-])c1` (stereo not given), the melting point came out at 149 °C.
With `C#CCc1cc(C(O)=S)cc(N)c1Oc1ccccc1`, the melting point is 167 to 168 °C.
In the case of `CCOC(=O)c1ccc(NCCCOc2ccc(Cl)cc2)cc1` it was 87 to 88 °C; in that of `CN(Cc1cc(C(F)(F)F)cc(C(F)(F)F)c1)C(=O)c1c(-c2ccccc2)c2ccccc2c(=S)n1C`, 145 to 147 °C.
In the case of `CCOCCn1cc2c(C3C(=O)Nc4ccc(Cl)cc43)nc(NCc3cccnc3)nc2n1` (stereo not given) it was 294 to 296 °C; in that of `O=c1c2c(Cc3ccccc3)n[nH]c2c2ccncc2n1-c1ccccc1`, 303 to 307 °C.
